In ChEMBL document CHEMBL2380215, “Development of cyclic peptomer inhibitors targeting the polo-box domain of polo-like kinase 1” (Bioorg Med Chem, 2013):
Activity calls are given as the source filed them. The calls are words filed in the database; no cut-off is given here.

Assays:
[1] = target: Serine/threonine-protein kinase PLK2 (Homo sapiens) (UniProt Q9NYY3); test: Inhibition of Plk2 polo-box domain (unknown origin) assessed as inhibition of 5-carboxyfluorescein-Ahx-GPMQTS-pT-PKNG binding after 10 mins by fluorescence polarization assay
[2] = target: Serine/threonine-protein kinase PLK3 (Homo sapiens) (UniProt Q9H4B4); test: Inhibition of Plk3 polo-box domain (unknown origin) assessed as inhibition of 5-carboxyfluorescein-Ahx-GPLATS-pT-PKNG binding after 10 mins by fluorescence polarization assay
[3] = target: Serine/threonine-protein kinase PLK1 (Homo sapiens) (UniProt P53350); test: Inhibition of HA-EGFP tagged Plk1 polo-box domain (unknown origin) expressed in 293A cells assessed as inhibition of biotin-p-T78 binding up to 150 uM after 1 hr by ELISA; format: cell-based
Sequence of Serine/threonine-protein kinase PLK1 (Homo sapiens) (P53350 whole entry, the tested form may be a part): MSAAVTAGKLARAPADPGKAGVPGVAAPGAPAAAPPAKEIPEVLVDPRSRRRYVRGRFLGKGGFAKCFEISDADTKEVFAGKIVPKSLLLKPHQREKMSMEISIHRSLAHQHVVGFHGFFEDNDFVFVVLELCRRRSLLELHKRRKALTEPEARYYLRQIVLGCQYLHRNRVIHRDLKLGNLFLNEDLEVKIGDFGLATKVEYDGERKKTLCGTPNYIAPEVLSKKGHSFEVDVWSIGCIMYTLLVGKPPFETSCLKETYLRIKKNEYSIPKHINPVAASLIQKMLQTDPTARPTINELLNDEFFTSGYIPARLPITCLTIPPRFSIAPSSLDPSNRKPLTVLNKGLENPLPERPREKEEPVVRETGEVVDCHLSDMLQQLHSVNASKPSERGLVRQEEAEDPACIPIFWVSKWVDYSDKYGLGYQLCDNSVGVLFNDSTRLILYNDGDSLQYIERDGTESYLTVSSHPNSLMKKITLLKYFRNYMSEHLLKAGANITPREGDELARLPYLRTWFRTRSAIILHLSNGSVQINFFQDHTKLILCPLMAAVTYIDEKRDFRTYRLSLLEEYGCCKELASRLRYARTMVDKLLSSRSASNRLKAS

Sequence of Serine/threonine-protein kinase PLK3 (Homo sapiens) (Q9H4B4 whole entry, looked up, the tested form may be a part): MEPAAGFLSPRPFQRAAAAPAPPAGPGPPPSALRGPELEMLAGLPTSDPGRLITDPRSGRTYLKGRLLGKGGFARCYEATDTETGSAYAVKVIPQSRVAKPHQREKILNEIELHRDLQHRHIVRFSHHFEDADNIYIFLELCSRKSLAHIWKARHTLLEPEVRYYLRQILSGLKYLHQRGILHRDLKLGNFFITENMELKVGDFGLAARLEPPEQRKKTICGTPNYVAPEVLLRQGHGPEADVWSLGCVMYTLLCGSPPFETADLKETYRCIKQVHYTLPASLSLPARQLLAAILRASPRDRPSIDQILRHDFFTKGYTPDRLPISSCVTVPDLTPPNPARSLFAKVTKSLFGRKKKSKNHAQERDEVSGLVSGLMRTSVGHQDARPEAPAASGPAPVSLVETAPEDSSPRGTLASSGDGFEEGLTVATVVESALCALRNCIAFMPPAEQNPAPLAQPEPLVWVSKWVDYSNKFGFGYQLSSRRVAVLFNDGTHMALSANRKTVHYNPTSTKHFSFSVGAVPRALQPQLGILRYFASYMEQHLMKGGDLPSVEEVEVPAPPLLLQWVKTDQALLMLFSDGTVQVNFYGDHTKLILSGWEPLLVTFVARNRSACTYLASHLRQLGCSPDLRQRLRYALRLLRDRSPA
Sequence of Serine/threonine-protein kinase PLK2 (Homo sapiens) (Q9NYY3 whole entry, looked up, the tested form may be a part): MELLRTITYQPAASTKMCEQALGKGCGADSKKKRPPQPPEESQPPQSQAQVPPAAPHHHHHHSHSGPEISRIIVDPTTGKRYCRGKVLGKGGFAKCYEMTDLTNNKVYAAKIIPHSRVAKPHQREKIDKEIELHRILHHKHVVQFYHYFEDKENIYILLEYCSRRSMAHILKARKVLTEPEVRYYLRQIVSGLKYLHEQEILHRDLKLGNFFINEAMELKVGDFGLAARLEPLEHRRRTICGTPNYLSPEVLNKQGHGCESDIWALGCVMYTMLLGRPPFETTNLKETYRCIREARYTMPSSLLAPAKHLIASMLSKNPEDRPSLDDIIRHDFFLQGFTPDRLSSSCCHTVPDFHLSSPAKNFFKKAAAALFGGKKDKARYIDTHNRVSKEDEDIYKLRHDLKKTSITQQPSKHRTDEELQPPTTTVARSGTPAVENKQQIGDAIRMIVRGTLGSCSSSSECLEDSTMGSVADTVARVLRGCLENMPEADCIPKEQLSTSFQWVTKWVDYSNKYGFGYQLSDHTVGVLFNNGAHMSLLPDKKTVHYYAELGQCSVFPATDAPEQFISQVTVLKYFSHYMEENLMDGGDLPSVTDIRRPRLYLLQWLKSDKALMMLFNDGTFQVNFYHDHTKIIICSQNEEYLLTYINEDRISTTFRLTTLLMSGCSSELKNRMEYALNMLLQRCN

inhibition [1]	inhibition [2]	inhibition [3]	SMILES
inactive	inactive		CC(=O)n1cc(CCNC(=O)CCCCCN2CC(=O)N[C@@H](CC(C)C)C(=O)N[C@@H](Cc3cncn3CCCCCCCCc3ccccc3)C(=O)N[C@@H](CO)C(=O)N[C@@H]([C@@H](C)OP(=O)(O)O)C(=O)N[C@@H](C(N)=O)CSCC2=O)c2ccccc21
		Active	CC(=O)n1cc(CCNC(=O)CCCCN2CC(=O)N[C@@H](CC(C)C)C(=O)N[C@@H](Cc3c[nH]cn3)C(=O)N[C@@H](CO)C(=O)N[C@@H]([C@@H](C)OP(=O)(O)O)C(=O)N[C@@H](C(N)=O)CSCC2=O)c2ccccc21
		Active	CC(=O)n1cc(CCNC(=O)CCN2CC(=O)N[C@@H](CC(C)C)C(=O)N[C@@H](Cc3c[nH]cn3)C(=O)N[C@@H](CO)C(=O)N[C@@H]([C@@H](C)OP(=O)(O)O)C(=O)N[C@@H](C(N)=O)CSCC2=O)c2ccccc21
inactive	inactive		CC(=O)n1cc(CCNC(=O)CCCCCN2CC(=O)N[C@@H](CC(C)C)C(=O)N[C@@H](Cc3c[nH]cn3)C(=O)N[C@@H](CO)C(=O)N[C@@H]([C@@H](C)OP(=O)(O)O)C(=O)N[C@@H](C(N)=O)CSCC2=O)c2ccccc21
